Reference: US20250064773A1, “TARGETING ERO1 ALPHA WITH AURONE DERIVATIVES” (West Virginia University Board of Governors on behalf of …, priority 2021, published 2025)
Entries after “also recorded” stand apart in the source; their conditions may differ.

Legend:
PC-9 cells = test: Soft agar clonogenic assay, PC-9; type: cell-based; settings: 14 days, 3.75-15 μM
Method: (§1) We utilized an MTT assay to determine the potency of the compounds for inhibiting cell growth. […] We next asked whether T151742 induced inhibition of cell growth was dependent on ERO1α expression. As shown in FIG. 6C two ERO1α deleted clones in the PC-9 cell line were isolated. Using an MTT assay to determine overall cellar viability, a non-targeted control (scramble), and both ERO1α knockout clones was subjected to treatment with T151742 for 72 hours (See FIG. 6D). […] Though only slight differences were observed between T151742 and EN-460 we tested the effects of these compounds in a clonogenic assay which is a better test for inhibition of self-renewal.
(§2) FIG. 7A and FIG. 7B show 1000 cells/well were plated in a 12-well plate in triplicate with either 0.5% DMSO, T151742, or EN-460 and allowed to form colonies for 14 days. Colonies were subsequently stained with 0.01% Crystal Violet, imaged, and quantified using ImageJ. […] Colonies were stained with 0.01% Crystal Violet, imaged, and quantified using ImageJ.
(§3) Cell Lines: PC-9 cell line used was obtained from Sigma Aldrich and grown in RPMI 1640 medium with 10% fetal bovine serum and 1% penicillin/streptomycin. […] Plate was then read on the BioTek Cytation 5 at 530/590 nm. […] Plate was then read at 570 nm. […] Images were then quantified using ImageJ. […]

[1] = test system: PC-9 ERO1α knockout clones; test: Soft agar clonogenic assay, PC-9 ERO1α knockout clones; type: cell-based; settings: 14 days, 3.75-15 μM
Method: as §1, §2, §3

CN(C)c1ccc(/C=C2\Oc3cc(O)ccc3C2=O)cc1 [Compound T151742]
activity in clonogenicity assay (colony number) (PC-9 cells): retained activity; also recorded: significantly more potent at reducing colony number | sensitivity of ERO1α knockout clones in clonogenic assay [1]: completely resistant
